Test results: paper PMC11581978, “Paenilamicins are context-specific translocation inhibitors of protein synthesis” (Nature Chemical Biology, 2024)
“Also recorded” adds a separate entry of the source.

Key:
E. coli 70S ribosome = assay: Cryo-EM of PamB2-stalled ribosome complexes; format: binding; conditions: 50 µM
Protocol: PamB2-ribosome complexes were generated by in vitro transcription–translation reactions in PURExpress in vitro protein synthesis system (New England Biolabs) with the same reaction mix as described earlier in the toeprinting assays. Complex formation reactions were carried out on MLIFstop toeprint DNA template in a 48 µl of reaction in presence of 50 µM PamB2. The reaction was incubated for 15 min at 37 °C. The reaction volume was then split: 42 µl were used for complex generation and 6 µl were used for toeprinting analysis. Ribosome complexes were isolated by centrifugation in 900 µl of sucrose gradient buffer (containing 40% sucrose, 50 mM HEPES-KOH, pH 7.4, 100 mM KOAc, 25 mM Mg(OAc)2 and 6 mM 2-mercaptoethanol) for 3 h at 4 °C with 80,000g in a Optima Max-XP Tabletop Ultracentrifuge with a TLA 120.2 rotor. The pelleted complex was resuspended in Hico buffer (50 mM HEPES-KOH, pH 7.4, 100 mM KOAc, 25 mM Mg(OAc)2) supplemented with 50 µM PamB2, then incubated for 15 min at 37 °C.
Sample volumes of 3.5 μl (eight at an optical density of 260 nm per milliliter) were applied to grids (Quantifoil, Cu, 300 mesh, R3/3 with 3-nm carbon) that had been freshly glow-discharged using a GloQube (Quorum Technologies) in negative charge mode at 25 mA for 90 s. Sample vitrification was performed using an ethane-propane mixture (37:63) in a Vitrobot Mark IV (Thermo Fisher Scientific), the chamber was set to 4 °C and 100% relative humidity and blotting was done for 3 s with no drain or wait time. Frozen cryo-EM grids were imaged on a TFS 300 kV Titan Krios at the Dubochet Center for Imaging EPFL (Lausanne, Switzerland). Images were collected on Falcon IV direct detection camera in counting mode using the EPU and AFIS data collection scheme with a magnification of ×96,000 and a total dose of 60 electrons per square angstrom (e^−/Å^2) for each exposure, and defocus ranging from −0.4 to −0.9 μm. In total, 7,638 videos were produced in EER format at a pixel size of 0.8 Å per pixel.
RELION v.4.0.1 (ref. [46]) was used for processing, unless otherwise specified. For motion correction, RELION’s implementation of MotionCor2 with 4×4 patches and for initial contrast transfer function (CTF) estimation CTFFIND v.4.1.14 (ref. [47]) was used. From 7,638 micrographs, 611,189 particles were picked using crYOLO v.1.8.04b47 with a general model. Then 562,816 ribosome-like particles were selected after two-dimensional classification and extracted at three times decimated pixel size (2.4 Å per pixel) (Supplementary Fig. 1b,c). An initial three-dimensional (3D) refinement was done using a E. coli 70S reference map (EMD-12573)[30]. […]

[1] = system: eukaryotic in vitro translation; assay: Eukaryotic in vitro translation assay (Rabbit Reticulocyte Lysate System); format: biochemical; conditions: 0.01-10 µM
Protocol: The effect of PamB2 on eukaryotic translation was determined using the Rabbit Reticulocyte Lysate System (Promega) as previously described. Briefly, 6-μl reactions, with or without PamB2 were mixed according to the manufacturer’s description and incubated for 30 min at 32 °C with shaking (600 rpm). Each reaction was stopped by adding 3 μl of cycloheximide (600 μM). All samples were diluted with 40 μl of Luciferase assays substrate (Promega) into a white 96-well chimney flat-bottom microtiter plate (Greiner). The luminescence was then measured using a Tecan Infinite M1000 plate reader. Relative values were determined by defining the luminescence value of the sample without inhibitor as 100%.

fungi = conditions: cited from earlier work
From the text: In the A-site, PamB2 contacts not only with 16S rRNA nucleotides in h44, but also A1913 from H69 of the 23S rRNA, and, in contrast to the P-site, the compound makes extensive interactions with the A-site tRNA, albeit less with the mRNA codon (Fig. 2c–f). Interactions of PamB2 with the A-site tRNA revolve around nucleotides ct^6A37 and A38, which are located in the anticodon-stem loop, directly adjacent to the anticodon (34CAU36) (Fig. 2e,f). Specifically, three direct hydrogen bonds are possible with A38 (Fig. 2e). Interactions with ct^6A37 are indirect, being mediated by water W6, which is co ...

Substance: paenilamicin B2 [PamB2]
- binding to elongating ribosomes (density) (E. coli 70S ribosome; A- and P-site tRNAs (nonrotated) or A/P- and P/E-hybrid tRNAs (rotated), 2.2-2.3 Å): additional density located between the A- and P-site tRNAs that could be unambiguously assigned to PamB2; also recorded: binds stably to the small subunit of elongating ribosomes containing A- and P-site transfer RNAs (tRNAs)
- binding to initiating ribosomes (density) (E. coli 70S ribosome; P-site tRNA only, 2.4 Å): No density for PamB2 was evident; also recorded: not to initiating ribosomes bearing only a P-site tRNA
- peptide bond formation in PamB2-bound elongation complexes (E. coli 70S ribosome; additional density on CCA-end of A-site and A/P-tRNA): peptide bond formation has already occurred
- binding site on the ribosome (E. coli 70S ribosome; cryo-EM): located predominantly on the 30S subunit of the 70S ribosome, where it inserts into the cleft between the A- and P-site tRNAs
- inhibition of eukaryotic in vitro translation (in words) [1]: efficiently inhibits eukaryotic in vitro translation
- antifungal activity (fungi): antifungal activity
